According to patent publication EP0139005A1, “ANTITUMOR COMPOSITION, METHOD FOR TREATING TUMOR, AND USE OF THE COMPOSITION FOR TREATING TUMOR” (Yoshitomi Pharmaceutical Industries, Ltd., priority 1982, dated 1984):

Experiments:
P388 leukemia = P388 leukemia implanted intraperitoneally, survival (Experimental Example 2); assay type: in vivo, female CDF1 mice; conditions: for 30-day Survivors / Average Survival Time / Life-Prolongation Ratio (%): once daily for seven days
Description: (§1) The life-prolongation ratio was calculated by the following scheme (the same scheme is applied to the subsequent experimental examples).
(§2) Life-prolongation Ratio [formula] T : Average survival days of the treated group
(§3) C : Average survival days of the control group
(§4) Animals survived over 30 days or longer were estimated as 30-day survivors, and the cases where T/C equals to or greater than 125% were regarded as effective.
A plurality of groups each consisting of five heads of female CDF1 mice (7-8 weeks old) were respectively implanted intraperitoneally with 10^6 cells of P388 leukemia. After 24 hours, Y-6430 and ESCC were respectively administered once daily for seven days, and average survival days, life-prolongation ratios and 30-day survivors in each group were calculated.

experimental tumors = conditions: L. Nemeth et al., Arzneim.-Forsh./Drug Res. 28(II), 1119-1123 (1978); cited from earlier work
L1210 leukemia [1] = assay: L1210 leukemia implanted intraperitoneally, i.p. treatment, survival (Experimental Example 3); assay type: in vivo, female CDF1 mice; conditions: for Average Survival Time / Life-Prolongation Ratio (%): once daily for seven days; for effectiveness against L1210 leukemia: i.p., all doses of Table 4
Description: as §1, §2, §3, §4
A plurality of groups each consisting of five heads of female CDF1 mice (8 weeks old) were respectively implanted intraperitoneally with 10 cells of L1210 leukemia. After the next day of the implantation, Y-6430, ESCC and ESCC ethyl ester (hereinafter referred to ESCC-Et) in physiological saline were respectively administered once daily for seven days intraperitoneally, and the average survival days and life-prolongation ratios in each group were calculated.
(§5) All the test animals died of tumor within 30 days.

L1210 leukemia [2] = assay: L1210 leukemia implanted intraperitoneally, oral or subcutaneous treatment, survival (Experimental Example 4); assay type: in vivo, female CDF1 mice; conditions: for Average Survival Time / Life-Prolongation Ratio (%): once daily for seven days
Description: as §1, §2, §3, §4
A plurality of groups each consisting of five female CDF1 mice (7-8 weeks old) were respectively implanted intraperitoneally with 10 cells of L1210 leukemia. After the next day of the implantation, the test animals were administered orally or subcutaneously once daily for seven days with Y-6430 or ESCC dissolved in physiological saline, and the average survival days and life-prolongation ratios in each group were calculated.
as §5

leukemia = conditions: R.H. Adamson, Nature 217, 751-752 (1968); cited from earlier work

CCNC(=O)SC[C@H](N)C(=O)O [ESCC, S-ethylcarbamoyl-L-cysteine, reference compound]
30-day Survivors (P388 leukemia; 100 mg/kg/day p.o.): 0/5
Average Survival Time (P388 leukemia; 100 mg/kg/day p.o.): 10.2 days
Life-Prolongation Ratio (%) (P388 leukemia; 100 mg/kg/day p.o.): 102%
30-day Survivors (P388 leukemia; 250 mg/kg/day p.o.): 0/5
Average Survival Time (P388 leukemia; 250 mg/kg/day p.o.): 10.8 days
Life-Prolongation Ratio (%) (P388 leukemia; 250 mg/kg/day p.o.): 108%
30-day Survivors (P388 leukemia; 500 mg/kg/day p.o.): 0/5
Average Survival Time (P388 leukemia; 500 mg/kg/day p.o.): 10.8 days
Life-Prolongation Ratio (%) (P388 leukemia; 500 mg/kg/day p.o.): 108%
30-day Survivors (P388 leukemia; 1,000 mg/kg/day p.o.): 0/5
Average Survival Time (P388 leukemia; 1,000 mg/kg/day p.o.): 12.6 days
Life-Prolongation Ratio (%) (P388 leukemia; 1,000 mg/kg/day p.o.): 126%
effectiveness against P388 leukemia (P388 leukemia; summary of Tables 2 and 3, T/C equal to or greater than 125% regarded as effective): only slightly effective
effect against experimental tumors (experimental tumors): more excellent effect than S-carbamoyl-L-cysteine
Average Survival Time (L1210 leukemia [1]; 50 mg/kg/day i.p.): 8.0 days
Life-Prolongation Ratio (%) (L1210 leukemia [1]; 50 mg/kg/day i.p.): 108%
Average Survival Time (L1210 leukemia [1]; 100 mg/kg/day i.p.): 8.0 days
Life-Prolongation Ratio (%) (L1210 leukemia [1]; 100 mg/kg/day i.p.): 108%
Average Survival Time (L1210 leukemia [1]; 250 mg/kg/day i.p.): 9.0 days
Life-Prolongation Ratio (%) (L1210 leukemia [1]; 250 mg/kg/day i.p.): 122%
Average Survival Time (L1210 leukemia [1]; 500 mg/kg/day i.p.): 9.0 days
Life-Prolongation Ratio (%) (L1210 leukemia [1]; 500 mg/kg/day i.p.): 122%
effectiveness against L1210 leukemia (L1210 leukemia [1]): ineffective
Average Survival Time (L1210 leukemia [2]; 100 mg/kg/day s.c.): 8.0 days
Life-Prolongation Ratio (%) (L1210 leukemia [2]; 100 mg/kg/day s.c.): 100%
Average Survival Time (L1210 leukemia [2]; 250 mg/kg/day s.c.): 8.0 days
Life-Prolongation Ratio (%) (L1210 leukemia [2]; 250 mg/kg/day s.c.): 100%
Average Survival Time (L1210 leukemia [2]; 500 mg/kg/day p.o.): 8.0 days
Life-Prolongation Ratio (%) (L1210 leukemia [2]; 500 mg/kg/day p.o.): 98%
Average Survival Time (L1210 leukemia [2]; 500 mg/kg/day s.c.): 8.0 days
Life-Prolongation Ratio (%) (L1210 leukemia [2]; 500 mg/kg/day s.c.): 100%
Average Survival Time (L1210 leukemia [2]; 1,000 mg/kg/day p.o.): 9.2 days
Life-Prolongation Ratio (%) (L1210 leukemia [2]; 1,000 mg/kg/day p.o.): 112%
Average Survival Time (L1210 leukemia [2]; 2,000 mg/kg/day p.o.): 9.6 days
Life-Prolongation Ratio (%) (L1210 leukemia [2]; 2,000 mg/kg/day p.o.): 117%
effectiveness against L1210 leukemia (L1210 leukemia [2]; oral and subcutaneous administration): ineffective

CCNC(=O)SC[C@H](N)C(=O)OCC [ESCC-Et, ESCC ethyl ester]
Average Survival Time (L1210 leukemia [1]; 50 mg/kg/day i.p.): 8.2 days
Life-Prolongation Ratio (%) (L1210 leukemia [1]; 50 mg/kg/day i.p.): 103%
Average Survival Time (L1210 leukemia [1]; 100 mg/kg/day i.p.): 8.4 days
Life-Prolongation Ratio (%) (L1210 leukemia [1]; 100 mg/kg/day i.p.): 105%
Average Survival Time (L1210 leukemia [1]; 250 mg/kg/day i.p.): 9.0 days
Life-Prolongation Ratio (%) (L1210 leukemia [1]; 250 mg/kg/day i.p.): 113%
Average Survival Time (L1210 leukemia [1]; 500 mg/kg/day i.p.): 9.0 days
Life-Prolongation Ratio (%) (L1210 leukemia [1]; 500 mg/kg/day i.p.): 113%
effectiveness against L1210 leukemia (L1210 leukemia [1]): ineffective

NC(=O)SC[C@H](N)C(=O)O [S-carbamoyl-L-cysteine]
effectiveness against leukemia in mice (leukemia): effective
